#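 These data come from cells grown in 96-well plates and exposed to compound for 48 hours at five concentrations. GI50 = concentration required for 50% inhibition of growth. TGI: concentration producing complete growth inhibition.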
# Key:
# Assay in all cases: inhibition of tumour cell growth, NCI panel, 48 h
# [1] = test system: UACC-257 melanoma
# [2] = test system: HCT-116 colon
# [3] = test system: SR leukemia
# [4] = test system: SK-OV-3 ovarian
# [5] = test system: HOP-92 NSCLC
# [6] = test system: NCI-H23 lung
# [7] = test system: EKVX NSCLC
# [8] = test system: UO-31 renal
# [9] = test system: MDA-MB-468 breast
# [10] = test system: SW-620 colon
# [11] = test system: SK-MEL-2 melanoma
# [12] = test system: A498 renal
# [13] = test system: OVCAR-8 ovarian
# [14] = test system: A549 NSCLC
# [15] = test system: NCI-H226 lung
# [16] = test system: HS 578T breast
# [17] = test system: PC-3 prostate
# [18] = test system: OVCAR-5 ovarian
# [19] = test system: NCI-H460 lung
# [20] = test system: MDA-MB-435
# [21] = test system: HT29 colon
# [22] = test system: SK-MEL-28 melanoma
# [23] = test system: HL-60(TB) leukemia
# [24] = test system: SF-295 CNS
# [25] = test system: SF-268 CNS
# [26] = test system: COLO 205 colon
# [27] = test system: MALME-3M melanoma
# [28] = test system: MCF7 breast
# [29] = test system: NCI-H522 lung
# [30] = test system: T-47D breast
# [31] = test system: MDA-MB-231 breast
# [32] = test system: U251 CNS
# [33] = test system: HCC-2998 colon
# [34] = test system: RXF 393 renal
# [35] = test system: SNB-75 CNS
# [36] = test system: ACHN renal
# [37] = test system: RPMI-8226 leukemia
# [38] = test system: SK-MEL-5 melanoma
# [39] = test system: HCT-15 colon
# [40] = test system: HOP-62 NSCLC
# [41] = test system: TK-10 renal
# [42] = test system: MOLT-4 leukemia
# [43] = test system: CCRF-CEM leukemia
# [44] = test system: KM12 colon
# [45] = test system: DU-145 prostate
# [46] = test system: 786-0 renal
# [47] = test system: SF-539 CNS
# [48] = test system: OVCAR-3 ovarian
# [49] = test system: UACC-62 melanoma
# [50] = test system: M14 melanoma
# [51] = test system: SN12C renal
# [52] = test system: SNB-19 CNS
# [53] = test system: LOX IMVI melanoma
# [54] = test system: IGROV1 ovarian
# [55] = test system: K-562 leukemia
# [56] = test system: BT-549 breast
structure (smiles),measurement,setting,value
O=C1C=CC(=CC=C2N(Cc3ccc4ccccc4c3)c3ccccc3N2Cc2ccc3ccccc3c2)C=C1,GI50,[1],1680 nM
same,TGI,[1],3610 nM
same,GI50,[2],971 nM
same,TGI,[2],3160 nM
same,GI50,[3],902 nM
same,TGI,[3],3620 nM
same,GI50,[4],1720 nM
same,TGI,[4],5260 nM
same,GI50,[5],883 nM
same,TGI,[5],2500 nM
same,GI50,[6],1250 nM
same,TGI,[6],2700 nM
same,GI50,[7],1260 nM
same,TGI,[7],3940 nM
same,GI50,[8],> 20700 nM
same,TGI,[8],> 100000 nM
same,GI50,[9],399 nM
same,TGI,[9],1490 nM
same,GI50,[10],1260 nM
same,TGI,[10],2660 nM
same,GI50,[11],1580 nM
same,TGI,[11],3010 nM
same,GI50,[12],2890 nM
same,TGI,[12],> 26900 nM
same,GI50,[13],971 nM
same,TGI,[13],2350 nM
same,GI50,[14],1530 nM
same,TGI,[14],> 100000 nM
same,GI50,[15],1390 nM
same,TGI,[15],2980 nM
same,GI50,[16],1470 nM
same,TGI,[16],4080 nM
same,GI50,[17],956 nM
same,TGI,[17],3100 nM
same,GI50,[18],1720 nM
same,TGI,[18],4410 nM
same,GI50,[19],654 nM
same,TGI,[19],1960 nM
same,GI50,[20],1360 nM
same,TGI,[20],2690 nM
same,GI50,[21],1880 nM
same,TGI,[21],5600 nM
same,GI50,[22],1290 nM
same,TGI,[22],2840 nM
same,GI50,[23],385 nM
same,TGI,[23],1980 nM
same,GI50,[24],1290 nM
same,TGI,[24],2870 nM
same,GI50,[25],2780 nM
same,TGI,[25],8810 nM
same,GI50,[26],1290 nM
same,TGI,[26],2740 nM
same,GI50,[27],1410 nM
same,TGI,[27],3200 nM
same,GI50,[28],1190 nM
same,TGI,[28],2540 nM
same,GI50,[29],1480 nM
same,TGI,[29],3030 nM
same,GI50,[30],1330 nM
same,TGI,[30],4750 nM
same,GI50,[31],1400 nM
same,TGI,[31],2760 nM
same,GI50,[32],520 nM
same,TGI,[32],1780 nM
same,GI50,[33],1500 nM
same,TGI,[33],3010 nM
same,GI50,[34],1330 nM
same,TGI,[34],2870 nM
same,GI50,[35],1180 nM
same,TGI,[35],3180 nM
same,GI50,[36],3590 nM
same,TGI,[36],> 100000 nM
same,GI50,[37],428 nM
same,TGI,[37],2180 nM
same,GI50,[38],697 nM
same,TGI,[38],1690 nM
same,GI50,[39],3740 nM
same,TGI,[39],> 100000 nM
same,GI50,[40],2210 nM
same,GI50,[41],2060 nM
same,TGI,[41],5270 nM
same,GI50,[42],1480 nM
same,TGI,[42],4320 nM
same,GI50,[43],1460 nM
same,TGI,[43],6220 nM
same,GI50,[44],1520 nM
same,TGI,[44],3750 nM
same,GI50,[45],2670 nM
same,TGI,[45],> 100000 nM
same,GI50,[46],1580 nM
same,TGI,[46],3040 nM
same,GI50,[47],1730 nM
same,TGI,[47],4070 nM
same,GI50,[48],904 nM
same,TGI,[48],2310 nM
same,GI50,[49],1400 nM
same,TGI,[49],2820 nM
same,GI50,[50],999 nM
same,TGI,[50],2520 nM
same,GI50,[51],1510 nM
same,TGI,[51],4680 nM
same,GI50,[52],920 nM
same,TGI,[52],2340 nM
same,GI50,[53],887 nM
same,TGI,[53],2230 nM
same,GI50,[54],1230 nM
same,TGI,[54],2570 nM
same,GI50,[55],514 nM
same,GI50,[56],1260 nM
same,TGI,[56],3420 nM

# Source: PubChem BioAssay (NCI)
